Conditions: laminin fragments in a collagen-filled silicon tube
Text: The present invention is directed to a biomaterial for nerve reconstruction, comprising chitin or chitosan with a surface modified by a laminin fragment having an amino acid sequence, such as YIGSR (tyrosine-isoleucine-glycine-serine-arginine) or IKVAV (isoleucine-lysine-valine-alanine-valine). This material may be used in the form of a nerve-bridging chitosan tube with a wall surface directly modified by the above laminin fragment, a nerve-bridging tube containing therein chitosan fibers with a surface modified by the above laminin fragment, or a nerve-bridging tube filled with chitosan gel modified by the above laminin fragment.

Row | Substance | cell adhesion and neurite growth-promoting effects in vivo
1 | isoleucine-lysine-valine-alanine-valine [IKVAV] | cannot achieve such effects
2 | tyrosine-isoleucine-glycine-serine-arginine [YIGSR] | cannot achieve such effects

From patent US20040248777A1, “Biomaterials for nerve reconstruction and process for producing the same” (priority 2001, published 2004)
